Read-outs that look alike come from different tables or passages of the source.

The results in this text go back to US5541208A, “Indole diterpene alkaloid compounds” (priority 1994, dated 1996).

Assay [1] has as its target T1, maxi-K channels from bovine aortic smooth muscle (Bos taurus, UniProt Q28204).
T1 construct: membrane patches excised from cultured bovine aortic smooth muscle cells; endogenous in cells; host or cells: cultured bovine aortic smooth muscle cells
In words: Patch clamp recording of maxi-K channel currents in excised inside-out membrane patches. Format: biochemical. The following applies: for IC50: table of Example 4, read-out: 50% CHANNEL BLOCK; for block of maxi-K channels relative to Compound C: compared with Compound C; for inhibition at 0.01 µM: pH 7.2. The source says: Patch clamp recordings of currents flowing through large-conductance calcium-activated potassium (maxi-K) channels were made from membrane patches excised from cultured bovine aortic smooth muscle cells using conventional techniques (Hamill et al., 1981, Pflugers Archiv. 391, 85-100) at room temperature. Glass capillary tubing (Gamer #7052) was pulled in two stages to yield micropipettes with tip diameters of approximately 1-2 microns. Pipettes were typically filled with solutions containing (mM): 150 KCl, 10 Hepes (4-(2-hydroxyethyl)-1-piperazine ethanesulfonic acid), 1 Mg, 0.01 Ca, and adjusted to pH 7.20 with 3.7 mM KOH. After forming a high resistance (>10^9 ohms) seal between the sarcolemmal membrane and the pipette, the pipette was withdrawn from the cell, forming an excised inside-out membrane patch. The patch was excised into a bath solution containing (mM): 150 KCl, 10 Hepes, 5 EGTA (ethylene glycol bis(13-aminoethyl ether)-N,N,N',N'-tetraacetic acid), sufficient Ca to yield a free Ca concentration of 1-5 μM, and the pH was adjusted to 7.2 with 10.5 KOH. For example, 4.568 mM Ca was added to give a free concentration of 2 μM at 22 ° C. An AXOPATCH 1C amplifier (Axon Instruments, Foster City, Calif.) with a CV-4 headstage was used to control the voltage and to measure the currents flowing across the membrane patch. The input to the headstage was connected to the pipette solution with a Ag/AgCl wire, and the amplifier ground was connected to the bath solution with a Ag/AgCl wire covered with a tube filled with agar dissolved in 0.2M KCl. Maxi-K channels were identified by their large single channel conductance (~250 pS) and sensitivity of channel open probability to membrane potential and intracellular calcium concentration.
Data were stored on a RACAL STORE 4DS FM tape recorder (Racal Recorders, Vienna, Va.) or on digital video tape using a video casette recorder after digitizing the signal with VR-10 (Instrutech Corp., Belmont N.Y.) PCM video encoder. The signal was also recorded on chart paper with a GOULD 2400S chart recorder (Gould Inc., Cleveland Ohio). For quantitative analysis, the data was played into a DEC11-73 (Digital Equipment Corp., Maynard, Mass.) after digitization with a DT2782-8D1A analogue to digital converter (Data Translation Inc., Marlboro, Mass.), or played into a Mac IIx or Quadra 700 computer (Apple Computers) after digitization with an ITC-16 interface (Instrutech Corp., Belmont, N.Y.).

The target in assay [2] is T2, bovine aortic sarcolemma membrane vesicles ([^125 I]ChTX receptor) (Bos taurus, UniProt Q28204).
T2 construct: bovine aortic s sarcolemma membrane vesicles; from tissue; host or cells: bovine aorta, sarcolemma membrane vesicles
As to the kind of experiment: [^125 I]ChTX binding assay with aortic sarcolemma membrane vesicles. Conditions: for effect on [^125 I]ChTX binding: 1 nM to 100 μM. On the procedure: The interaction of [^125 I]ChTX with bovine aortic s sarcolemma membrane vesicles was determined under conditions as described (Vazquez et al., 1989, J. Biol. Chem. 264, 20902-20909). Briefly, sarcolemma membrane vesicles were incubated in 12×75 polystyrene tubes with ca. 25 pM [^125 I]ChTX (2200 Ci/mmol), in the absence or presence of test compound, in a media consisting of 20 mM NaCl, 20 mM Tris-HCl pH 7.4, 0.1% bovine serum albumin, 0.1% digitonin. Nonspecific binding was determined in the presence of 10 nM ChTX. Incubations were carried out at room temperature until ligand binding equilibrium is achieved at ca. 90 min. At the end of the incubation period, samples were diluted with 4 mL ice-cold 100 mM NaCl, 20 mM Hepes-Tris pH 7.4 and filtered through GF/C glass fiber filters that have been presoaked in 0.5% polyethylenimine. Filters were rinsed twice with 4 mL ice-cold quench solution. Radioactivity associated with filters was determined in a gamma counter. Specific binding data in the presence of each compound (difference between total binding and nonspecific binding) was assessed relative to an untreated control.

T1 sequence (Q28204 whole entry): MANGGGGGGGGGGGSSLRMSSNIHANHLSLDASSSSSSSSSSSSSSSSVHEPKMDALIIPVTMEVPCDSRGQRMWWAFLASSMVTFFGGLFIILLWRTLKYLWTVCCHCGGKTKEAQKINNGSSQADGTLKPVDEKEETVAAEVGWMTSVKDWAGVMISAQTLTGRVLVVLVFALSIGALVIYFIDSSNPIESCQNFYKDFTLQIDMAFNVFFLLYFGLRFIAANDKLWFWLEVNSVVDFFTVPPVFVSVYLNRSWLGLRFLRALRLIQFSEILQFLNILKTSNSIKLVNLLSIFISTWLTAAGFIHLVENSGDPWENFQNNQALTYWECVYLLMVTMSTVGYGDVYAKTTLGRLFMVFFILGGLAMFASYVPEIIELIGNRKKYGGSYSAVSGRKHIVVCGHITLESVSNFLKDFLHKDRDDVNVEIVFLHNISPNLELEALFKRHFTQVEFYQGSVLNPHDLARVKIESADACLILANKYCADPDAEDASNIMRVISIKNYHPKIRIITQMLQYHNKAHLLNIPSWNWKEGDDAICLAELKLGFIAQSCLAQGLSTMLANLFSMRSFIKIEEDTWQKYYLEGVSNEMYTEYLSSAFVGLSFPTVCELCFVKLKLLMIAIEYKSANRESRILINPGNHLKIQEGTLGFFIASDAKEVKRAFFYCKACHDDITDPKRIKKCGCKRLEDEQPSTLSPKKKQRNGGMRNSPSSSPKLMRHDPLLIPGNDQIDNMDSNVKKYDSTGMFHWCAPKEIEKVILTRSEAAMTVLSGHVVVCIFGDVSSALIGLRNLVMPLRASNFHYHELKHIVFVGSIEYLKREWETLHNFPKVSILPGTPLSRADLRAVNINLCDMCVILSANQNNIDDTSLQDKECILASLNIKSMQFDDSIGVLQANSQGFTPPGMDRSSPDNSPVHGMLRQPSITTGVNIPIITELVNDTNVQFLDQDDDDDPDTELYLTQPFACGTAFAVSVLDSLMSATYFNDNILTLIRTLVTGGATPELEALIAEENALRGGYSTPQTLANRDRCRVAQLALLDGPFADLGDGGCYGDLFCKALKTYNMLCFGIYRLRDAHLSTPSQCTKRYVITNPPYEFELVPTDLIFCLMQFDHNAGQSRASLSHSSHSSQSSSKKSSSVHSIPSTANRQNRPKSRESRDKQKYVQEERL
T2 sequence (Q28204 whole entry): as above
T2 sequence (Q28067 whole entry partner): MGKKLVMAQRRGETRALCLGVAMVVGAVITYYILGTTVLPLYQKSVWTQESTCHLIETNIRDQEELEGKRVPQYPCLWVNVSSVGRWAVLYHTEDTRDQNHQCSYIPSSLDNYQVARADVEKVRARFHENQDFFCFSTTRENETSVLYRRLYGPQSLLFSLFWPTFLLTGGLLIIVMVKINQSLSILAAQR

Consider `CC(C)=CCc1cccc2[nH]c3c(c12)CC1CCC2(O)C45OC4C4OC(C=C(C)C)OC(C)(C)C4OC5=CCC2(C)C31C` (stereo not shown) [Compound C], for which the “block of maxi-K channels / channel activity” value in assay [1] (10 nM) is “rapid and complete block”. Besides, in assay [1] (10 nM, brief (~10 min) washout), the “reversal of block on washout” value is recorded as “not reversed”. The IC50 in assay [1] is less than 10 nM. Further, the inhibition at 10 µM in assay [2] (read-out: inhibition of [^125 I]ChTX binding) turned out to be 29%.

`CC(C)(O)C1CC(O)C2(C(=O)O)C(CCC3(C)C2CCC2Cc4c([nH]c5ccccc45)C23C)O1` (stereo not shown) [Compound D, hydroxypaspalinic acid]: in assay [1] (1 μM), the “block of channel activity” value is recorded as “complete block was not observed”. Besides, in assay [1], the “block of maxi-K channels relative to Compound C” value is “weaker blockers of maxi-K channels than Compound C” and the IC50 is approximately 1000 nM. Moreover, the inhibition at 0.01 µM in assay [1] (10 nM, read-out: reduction in channel open probability) was less than 50%. Moreover, the “effect on [^125 I]ChTX binding” value in assay [2] is “did not have any effect on binding”.

Turning to `COC(=O)C12C(O)CC(C(C)(C)O)OC1CCC1(C)C2CCC2Cc3c([nH]c4ccccc34)C21C` (stereo not shown) [Compound E, methyl hydroxypaspalinate], the “effect on channel open probability” value in assay [1] (1 μM) is on record as “no significant effect on channel open probability”. Further, in assay [1] (10 μM), the “block of channel activity” value is given as “incomplete block of channel activity” and the “time over which block of channel activity slowly increased” value is 5 to 10 min. Besides, in assay [1], the “block of maxi-K channels relative to Compound C” value is on record as “weaker blockers of maxi-K channels than Compound C” and the IC50 was more than 10000 nM. Besides, the “effect on [^125 I]ChTX binding” value in assay [2] was “did not affect [^125 I]ChTX binding”.

Take `CC1(C)ON=C2C=C3C(CCC4(C)C3(O)CCC3Cc5c([nH]c6ccccc56)C34C)OC21` (stereo not shown) [Compound F, Paxizoline]: the inhibition at 0.01 µM in assay [1] (10 nM, read-out: decrease in channel activity) is approximately 50%. Moreover, the IC50 in assay [1] was approximately 10 nM. Besides, in assay [2] (50 nM to 2 μM), the “effect on amount of toxin bound to its receptor” value is “small increase in the amount of toxin bound to its receptor”. In addition, the “effect on toxin binding” value in assay [2] (concentrations above 5 μM) is given as “concentration-dependent inhibition of binding”.
